Results taken from patent US20160115446A1, “Technologies, Methods, and Products of Small Molecule Directed Tissue and Organ Regeneration from Human Pluripotent Stem Cells” (SAN DIEGO REGENERATIVE MEDICINE INSTITUTE, priority 2014, published 2016).

Test system: undifferentiated hESCs
Experiment: Cardiac induction of undifferentiated hESCs in defined culture by NAM (marker immunostaining, beating cardiomyocytes)
Format: cell-based, human
Text: (b) Cardiac fate switch direct of the pluripotent state of hESCs induced by nicotinamide. NAM-induced Oct-4-negative cells began to express the cardiac specific transcription factor (Csx) Nkx2.5 (green) and alpha-actinin (red), consistent with early cardiac differentiation. […] All cells are indicated by DAPI staining of their nuclei (blue). Insets at the top better visualize individual cells at higher-magnification.
(Stage 1—Human Cardiomesodermal Cells) (FIGS. 1; 2a, b). Increased intensity of Nkx2.5 was usually observed in areas of the colonies where cells began to pile up (FIG. 2b). These differentiating hESCs then formed cardioblasts that uniformly expressed Nkx2.5 in suspension (Stage 2—Human Cardiac Precursor Cells) (FIGS. 1; 3a). […] (FIGS. 1, 3b). Cells within the beating cardiospheres expressed markers characteristic of cardiomyocytes (FIG. 3b). The cardiomyocytes can retain their strong contractility for over 3 months. Electrical profiles of the cardiomyocytes confirmed their contractions to be strong rhythmic impulses reminiscent of the p-QRS-T-complexes seen from body surface electrodes in clinical electrocardiograms (FIG. 3c). Cardiac specific transcription factor (Csx) Nkx2.5 is an evolutionally conserved homeobox transcription factor indispensable for normal cardiac development. The onset and pattern of early Nkx2.5 expression roughly coincide with the timing and area of cardiac specification, and Nkx2.5 gene continues to be expressed through development in the heart. Expression of Nkx2.5 is the earliest marker for heart precursor cells in all vertebrates so far examined and is essential for proper cardiac septation and formation/maturation of electrical conduction system.

Compound: NC(=O)c1cccnc1 [NAM, nicotinamide]
- expression of cardiac-specific transcription factor Csx/Nkx2.5 (NAM 10 mM, defined culture): began expressing the earliest marker for heart precursor, Csx/Nkx2.5
- expression of pluripotence-associated markers (e.g., Oct-4) (NAM 10 mM, defined culture, all the cells within the colony): down-regulated the expression of pluripotence-associated markers
- appearance of beating cardiomyocytes (cardioblasts attached, further NAM treatment, after withdrawal of NAM, vs untreated control): drastic increase in efficiency
